Data from patent publication US8329904B2, “Azacyclic derivatives” (Hoffmann-La Roche Inc., priority 2009, dated 2012).

Each molecule was assayed against T1, human HSL (Homo sapiens, UniProt Q05469) (assay: Human Hormone-Sensitive Lipase (HSL) Enzyme Inhibition Assay). Conditions: colorimetric assay, 2,3-dimercapto-1-propanol tributyrate (DMPT) substrate, 37° C. for 20 minutes, absorbance at 405 nm; read-out: HSL hum IC50.
T1 construct: overlapping PCR to generate a full length human HSL ORF with a 3′-His6 tag; His6 (C); made in house; host or cells: High 5 insect cells (baculovirus, pFast-BAC)
T1 sequence (Q05469 1-1076): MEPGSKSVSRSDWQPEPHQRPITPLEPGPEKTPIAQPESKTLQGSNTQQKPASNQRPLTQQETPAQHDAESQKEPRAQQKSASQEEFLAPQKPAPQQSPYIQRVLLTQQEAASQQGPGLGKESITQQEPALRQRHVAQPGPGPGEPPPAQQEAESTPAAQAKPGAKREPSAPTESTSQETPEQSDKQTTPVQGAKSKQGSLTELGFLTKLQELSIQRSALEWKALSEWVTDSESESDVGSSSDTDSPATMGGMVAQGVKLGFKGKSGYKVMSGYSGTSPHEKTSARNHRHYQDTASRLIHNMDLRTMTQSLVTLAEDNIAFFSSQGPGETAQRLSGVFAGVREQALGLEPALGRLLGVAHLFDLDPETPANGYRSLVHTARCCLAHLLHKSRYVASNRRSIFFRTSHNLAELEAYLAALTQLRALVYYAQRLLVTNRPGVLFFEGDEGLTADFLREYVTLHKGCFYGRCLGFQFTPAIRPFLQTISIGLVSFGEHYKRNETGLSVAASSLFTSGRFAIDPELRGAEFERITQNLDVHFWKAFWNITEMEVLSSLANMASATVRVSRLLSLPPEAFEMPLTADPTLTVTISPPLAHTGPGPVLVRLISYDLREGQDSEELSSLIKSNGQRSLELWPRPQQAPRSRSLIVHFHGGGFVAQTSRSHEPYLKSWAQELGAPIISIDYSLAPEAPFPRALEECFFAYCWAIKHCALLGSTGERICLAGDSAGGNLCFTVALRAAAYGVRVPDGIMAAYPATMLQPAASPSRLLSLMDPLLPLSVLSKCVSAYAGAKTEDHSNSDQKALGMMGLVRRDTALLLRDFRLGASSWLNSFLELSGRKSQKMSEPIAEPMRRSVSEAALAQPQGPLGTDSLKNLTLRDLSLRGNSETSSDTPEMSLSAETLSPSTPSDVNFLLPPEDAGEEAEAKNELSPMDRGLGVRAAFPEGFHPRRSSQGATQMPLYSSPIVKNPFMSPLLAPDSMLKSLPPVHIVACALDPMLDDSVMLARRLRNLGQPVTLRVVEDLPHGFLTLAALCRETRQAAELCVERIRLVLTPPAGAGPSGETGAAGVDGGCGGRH
Assay type: biochemical
Method in brief: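 Colorimetric thioester hydrolysis: compounds in DMSO series mixed with DMPT (1.5 mM) in MOPS pH 7.2 with BSA, then baculovirus-expressed His6-tagged full-length human HSL added, 37° C, 20 min. DTNB plus detergents added, 15 min room temperature, absorbance at 405 nm.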

| Structure (SMILES) | IC50 |
| --- | --- |
| CC(C)CS(=O)(=O)N1CCC2(CCN(c3ccc(C4CC4)cc3)C2=O)CC1 [Example 65, 2-(4-Cyclopropyl-phenyl)-8-(2-methyl-propane-1-sulfonyl)-2,8-diaza-spiro[4.5]decan-1-one] | 100 nM |
| O=C1N(c2ccc(OC(F)(F)F)cc2)CCC12CCN(S(=O)(=O)N1CCCC1)CC2 [Example 182, 8-(Pyrrolidine-1-sulfonyl)-2-(4-trifluoromethoxy-phenyl)-2,8-diaza-spiro[4.5]decan-1-one] | 90 nM |
| O=C1N(CCc2ccc(F)cc2)CCC12CCN(S(=O)(=O)c1ccccc1Cl)CC2 [Example 239, 8-(2-Chloro-benzenesulfonyl)-2-[2-(4-fluoro-phenyl)-ethyl]-2,8-diaza-spiro[4.5]decan-1-one] | 60 nM |
| CS(=O)(=O)c1ccccc1S(=O)(=O)N1CCC2(CCN(c3ccc(OC(F)(F)F)cc3)C2=O)CC1 [Example 51, 8-(2-Methanesulfonyl-benzenesulfonyl)-2-(4-trifluoromethoxy-phenyl)-2,8-diaza-spiro[4.5]decan-1-one] | 140 nM |
| CC(Oc1ccc(N2CCC3(CCN(S(=O)(=O)C4CC4)CC3)C2=O)cc1)C(F)(F)F (centres unmarked) [Example 98, 8-Cyclopropanesulfonyl-2-[4-(2,2,2-trifluoro-1-methyl-ethoxy)-phenyl]-2,8-diaza-spiro[4.5]decan-1-one] | 170 nM |
| CC(C)CS(=O)(=O)N1CCC2(CCN(c3ccc(OC(C)C)cc3)C2=O)CC1 [Example 23, 2-(4-Isopropoxy-phenyl)-8-(2-methyl-propane-1-sulfonyl)-2,8-diaza-spiro[4.5]decan-1-one] | 160 nM |
| CCC(C)Oc1ccc(N2CCC3(CCN(S(=O)(=O)c4ccccc4OC(F)(F)F)CC3)C2=O)cc1 (centres unmarked) [Example 90, 2-(4-sec-Butoxy-phenyl)-8-(2-trifluoromethoxy-benzenesulfonyl)-2,8-diaza-spiro[4.5]decan-1-one] | 20 nM |
| CC1CCCCN1C(=O)N1CCC2(CC1)CCN(c1ccc(OC(F)(F)F)cc1)C2=O (centres unmarked) [Example 272, 8-(2-Methyl-piperidine-1-carbonyl)-2-(4-trifluoromethoxy-phenyl)-2,8-diaza-spiro[4.5]decan-1-one] | 100 nM |
| CSc1ccc(N2CCC3(CCN(S(=O)(=O)c4ccccc4Cl)CC3)C2=O)cc1 [Example 34, 8-(2-Chloro-benzenesulfonyl)-2-(4-methylsulfanyl-phenyl)-2,8-diaza-spiro[4.5]decan-1-one] | 100 nM |
| CC(Oc1ccc(N2CCC3(CCN(C(=O)CC(C)(C)C)CC3)C2=O)cc1)C(F)(F)F (centres unmarked) [Example 123, 8-(3,3-Dimethyl-butyryl)-2-[4-(2,2,2-trifluoro-1-methyl-ethoxy)-phenyl]-2,8-diaza-spiro[4.5]decan-1-one] | 250 nM |
| Cc1nnc(Cc2ccc(N3CCC4(CCN(S(=O)(=O)c5ccccc5Cl)CC4)C3=O)cc2)o1 [Example 137, 8-(2-Chloro-benzenesulfonyl)-2-[4-(5-methyl-[1,3,4]oxadiazol-2-ylmethyl)-phenyl]-2,8-diaza-spiro[4.5]decan-1-one] | 220 nM |
| O=C1N(c2ccc(OC(F)(F)F)cc2)CCC12CCN(S(=O)(=O)CC1CCC1)CC2 [Example 93, 8-Cyclobutylmethanesulfonyl-2-(4-trifluoromethoxy-phenyl)-2,8-diaza-spiro[4.5]decan-1-one] | 90 nM |
| CNc1ncccc1S(=O)(=O)N1CCC2(CCN(c3ccc(OCC(F)(F)F)cc3)C2=O)CC1 [Example 207, 8-(2-Methylamino-pyridine-3-sulfonyl)-2-[4-(2,2,2-trifluoro-ethoxy)-phenyl]-2,8-diaza-spiro[4.5]decan-1-one] | 60 nM |
| CCc1ccc(N2CCC3(CCN(S(=O)(=O)c4ccccc4I)CC3)C2=O)cc1 [Example 74, 2-(4-Ethyl-phenyl)-8-(2-iodo-benzenesulfonyl)-2,8-diaza-spiro[4.5]decan-1-one] | 200 nM |
| O=C(CC1CCCC1)N1CCC2(CC1)CCN(c1ccc(C3CC3)cc1)C2=O [Example 37, 8-(2-Cyclopentyl-acetyl)-2-(4-cyclopropyl-phenyl)-2,8-diaza-spiro[4.5]decan-1-one] | 220 nM |
| O=C1N(c2ccc(C3CC3)cc2)CCC12CCN(S(=O)(=O)c1ccc(C(F)(F)F)cc1Cl)CC2 [Example 77, 8-(2-Chloro-4-trifluoromethyl-benzenesulfonyl)-2-(4-cyclopropyl-phenyl)-2,8-diaza-spiro[4.5]decan-1-one] | 180 nM |
| Cc1cc(CS(=O)(=O)N2CCC3(CCN(c4ccc(OC(F)(F)F)cc4)C3=O)CC2)no1 [Example 232, 8-(5-Methyl-isoxazol-3-ylmethanesulfonyl)-2-(4-trifluoromethoxy-phenyl)-2,8-diaza-spiro[4.5]decan-1-one] | 90 nM |
| O=C1N(c2ccc(C3CC3)cc2)CCC12CCN(S(=O)(=O)Cc1ccccc1)CC2 [Example 38, 2-(4-Cyclopropyl-phenyl)-8-phenylmethanesulfonyl-2,8-diaza-spiro[4.5]decan-1-one] | 60 nM |
| CC(C)(C)CC(=O)N1CCC2(CC1)CCN(c1ccc(C3CC3)cc1)C2=O [Example 35, 2-(4-Cyclopropyl-phenyl)-8-(3,3-dimethyl-butyryl)-2,8-diaza-spiro[4.5]decan-1-one] | 170 nM |
| O=C(COCc1ccccc1)N1CCC2(CC1)CCN(c1ccc(OC(F)(F)F)cc1)C2=O [Example 220, 8-(2-Benzyloxy-acetyl)-2-(4-trifluoromethoxy-phenyl)-2,8-diaza-spiro[4.5]decan-1-one] | 80 nM |

Continued, values first:

| IC50 | Structure (SMILES) |
| --- | --- |
| 40 nM | Cn1nccc1S(=O)(=O)N1CCC2(CCN(c3ccc(OC(F)(F)F)cc3)C2=O)CC1 [Example 183, 8-(2-Methyl-2H-pyrazole-3-sulfonyl)-2-(4-trifluoromethoxy-phenyl)-2,8-diaza-spiro[4.5]decan-1-one] |
| 50 nM | O=C1N(CCc2cccc(F)c2)CCC12CCN(S(=O)(=O)c1ccccc1Cl)CC2 [Example 243, 8-(2-Chloro-benzenesulfonyl)-2-[2-(3-fluoro-phenyl)-ethyl]-2,8-diaza-spiro[4.5]decan-1-one] |
| 40 nM | O=C1N(c2ccc(OC3CCOC3)cc2)CCC12CCN(S(=O)(=O)c1ccccc1Cl)CC2 (centres unmarked) [Example 129, 8-(2-Chloro-benzenesulfonyl)-2-[4-(tetrahydro-furan-3-yloxy)-phenyl]-2,8-diaza-spiro[4.5]decan-1-one] |
| 20 nM | O=C1N(c2ccc(C(O)C(F)(F)F)cc2)CCC12CCN(S(=O)(=O)c1ccccc1OC(F)(F)F)CC2 (centres unmarked) [Example 163, 2-[4-(2,2,2-Trifluoro-1-hydroxy-ethyl)-phenyl]-8-(2-trifluoromethoxy-benzenesulfonyl)-2,8-diaza-spiro[4.5]decan-1-one] |
| 50 nM | O=C1N(c2ccc(OS(=O)(=O)C3CC3)cc2)CCC12CCN(S(=O)(=O)c1ccccc1OC(F)(F)F)CC2 [Example 80, Cyclopropanesulfonic acid 4-[1-oxo-8-(2-trifluoromethoxy-benzenesulfonyl)-2,8-diaza-spiro[4.5]dec-2-yl]-phenyl ester] |
| 30 nM | O=C1N(c2ccc(OC(F)(F)F)cc2)CCC12CCN(S(=O)(=O)c1cccnc1)CC2 [Example 187, 8-(Pyridine-3-sulfonyl)-2-(4-trifluoromethoxy-phenyl)-2,8-diaza-spiro[4.5]decan-1-one] |
| 50 nM | CC(Oc1ccc(N2CCC3(CCN(S(=O)(=O)c4ccccc4Cl)CC3)C2=O)cn1)C(F)(F)F (racemic) [Example 114, 8-(2-Chloro-benzenesulfonyl)-2-[6-(2,2,2-trifluoro-1-methyl-ethoxy)-pyridin-3-yl]-2,8-diaza-spiro[4.5]decan-1-one (rac)] |
| 20 nM | CN(C)c1ncccc1S(=O)(=O)N1CCC2(CCN(c3ccc(OC(F)(F)F)cc3)C2=O)CC1 [Example 190, 8-(2-Dimethylamino-pyridine-3-sulfonyl)-2-(4-trifluoromethoxy-phenyl)-2,8-diaza-spiro[4.5]decan-1-one] |
| 40 nM | CS(=O)(=O)Oc1ccc(N2CCC3(CCN(S(=O)(=O)c4ccc(F)cc4C(F)(F)F)CC3)C2=O)cc1 [Example 83, Methanesulfonic acid 4-[8-(4-fluoro-2-trifluoromethyl-benzenesulfonyl)-1-oxo-2,8-diaza-spiro[4.5]dec-2-yl]-phenyl ester] |
